# Legend:
# 22Rv1 = experiment: Cell line inhibition analysis (CCK-8, 72 h); format: cell-based; conditions: Homo sapiens; 22Rv1, 72 hours; read-out: Cell growth inhibition GI50 22Rv1
# Method in brief: (§1)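 Cells attached one day, then treated 72 h at 37 °C with nine 3-fold compound dilutions (final 0-50 µM) or DMSO. Growth read by CCK-8 absorbance at 450 nm after 2 h, medium-blank corrected, with a day-0 plate defining 0% growth; GI50 calculated.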
# C4-2B = experiment: Cell line inhibition analysis (CCK-8, 72 h); format: cell-based; conditions: read-out: Cell growth inhibition GI50 C4-2B
# Method in brief: as §1
# CDK4/CYCLIN D2 = CDK4/CYCLIN D2 (Homo sapiens, UniProt P11802); experiment: Kinase panel; format: biochemical; conditions: CDK4/CYCLIN D2, 1 µM; read-out: residual enzyme activity
# Method in brief: (§2)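 Biochemical full-panel kinase assay with compounds tested at a single concentration of 1 µM. Values are residual enzyme activity. Kinases were flagged when residual activity was 40% or less, i.e. inhibition of 60% or more.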
# CDK6/CYCLIN D2 = CDK6/CYCLIN D2 (Homo sapiens, UniProt Q00534); experiment: Kinase panel; format: biochemical; conditions: CDK6/CYCLIN D2, 1 µM; read-out: residual enzyme activity
# Method in brief: as §2
# CDK19/cyclin C = CDK19/cyclin C (Homo sapiens, UniProt Q9BWU1); experiment: Kinase panel; format: biochemical; conditions: read-out: residual enzyme activity
# Method in brief: as §2
# CDK8/cyclin C = CDK8/cyclin C (Homo sapiens, UniProt P49336); experiment: Kinase panel; format: biochemical; conditions: read-out: residual enzyme activity
# Method in brief: as §2
# DLK/MAP3K12 = DLK/MAP3K12 (Homo sapiens, UniProt Q12852); experiment: Kinase panel; format: biochemical; conditions: DLK/MAP3K12, 1 µM; read-out: residual enzyme activity
# Method in brief: as §2
# PKMYT1 = PKMYT1 (Homo sapiens, UniProt Q99640); experiment: Kinase panel; format: biochemical; conditions: PKMYT1, 1 µM; read-out: residual enzyme activity
# Method in brief: as §2
# RIPK3 = RIPK3 (Homo sapiens, UniProt Q9Y572); experiment: Kinase panel; format: biochemical; conditions: RIPK3, 1 µM; read-out: residual enzyme activity
# Method in brief: as §2
# Chain of CDK6/CYCLIN D2 (Q00534 whole entry, species assumed): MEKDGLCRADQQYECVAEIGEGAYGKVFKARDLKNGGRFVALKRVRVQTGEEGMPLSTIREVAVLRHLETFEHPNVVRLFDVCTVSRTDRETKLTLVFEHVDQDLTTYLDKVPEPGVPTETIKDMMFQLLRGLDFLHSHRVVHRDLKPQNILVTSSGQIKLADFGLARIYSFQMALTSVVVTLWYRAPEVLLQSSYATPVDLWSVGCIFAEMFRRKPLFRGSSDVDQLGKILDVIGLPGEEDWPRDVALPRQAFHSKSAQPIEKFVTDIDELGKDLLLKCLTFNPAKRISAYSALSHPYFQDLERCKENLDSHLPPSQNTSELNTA
# Chain of CDK6/CYCLIN D2 (P30279 whole entry partner, species assumed): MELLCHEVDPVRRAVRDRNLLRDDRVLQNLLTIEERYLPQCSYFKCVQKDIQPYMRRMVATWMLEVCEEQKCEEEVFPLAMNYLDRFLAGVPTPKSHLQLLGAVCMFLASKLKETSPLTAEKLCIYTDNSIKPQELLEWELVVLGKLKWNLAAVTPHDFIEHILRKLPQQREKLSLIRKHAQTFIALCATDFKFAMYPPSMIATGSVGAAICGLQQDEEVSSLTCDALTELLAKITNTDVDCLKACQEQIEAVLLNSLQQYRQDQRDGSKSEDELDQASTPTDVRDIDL
# Chain of CDK4/CYCLIN D2 (P11802 whole entry, species assumed): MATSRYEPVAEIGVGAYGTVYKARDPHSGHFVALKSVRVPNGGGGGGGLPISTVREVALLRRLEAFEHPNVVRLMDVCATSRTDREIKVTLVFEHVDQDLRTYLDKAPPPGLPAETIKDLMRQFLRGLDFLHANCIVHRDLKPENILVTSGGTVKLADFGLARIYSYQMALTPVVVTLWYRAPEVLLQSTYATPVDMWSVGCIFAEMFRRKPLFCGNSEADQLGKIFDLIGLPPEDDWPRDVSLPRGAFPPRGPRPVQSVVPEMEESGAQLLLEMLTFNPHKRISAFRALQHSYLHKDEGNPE
# Chain of CDK4/CYCLIN D2 (P30279 whole entry partner, species assumed): as the sequence (P30279 whole entry partner, species assumed) above
# Chain of CDK8/cyclin C (P49336 whole entry, species assumed): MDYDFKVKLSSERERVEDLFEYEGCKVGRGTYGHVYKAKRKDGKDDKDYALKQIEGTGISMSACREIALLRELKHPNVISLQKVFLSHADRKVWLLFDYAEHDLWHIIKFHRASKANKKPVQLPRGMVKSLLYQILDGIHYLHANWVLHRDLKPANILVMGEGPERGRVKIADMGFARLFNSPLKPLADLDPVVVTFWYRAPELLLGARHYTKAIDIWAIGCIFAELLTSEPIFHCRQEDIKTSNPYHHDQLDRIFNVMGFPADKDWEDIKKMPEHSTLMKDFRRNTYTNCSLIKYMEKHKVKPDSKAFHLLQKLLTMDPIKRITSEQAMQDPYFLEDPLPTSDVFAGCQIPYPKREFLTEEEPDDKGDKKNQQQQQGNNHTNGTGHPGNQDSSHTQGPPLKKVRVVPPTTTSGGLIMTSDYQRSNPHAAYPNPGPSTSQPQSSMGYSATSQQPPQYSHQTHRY
# Chain of CDK8/cyclin C (P24863 whole entry partner, species assumed): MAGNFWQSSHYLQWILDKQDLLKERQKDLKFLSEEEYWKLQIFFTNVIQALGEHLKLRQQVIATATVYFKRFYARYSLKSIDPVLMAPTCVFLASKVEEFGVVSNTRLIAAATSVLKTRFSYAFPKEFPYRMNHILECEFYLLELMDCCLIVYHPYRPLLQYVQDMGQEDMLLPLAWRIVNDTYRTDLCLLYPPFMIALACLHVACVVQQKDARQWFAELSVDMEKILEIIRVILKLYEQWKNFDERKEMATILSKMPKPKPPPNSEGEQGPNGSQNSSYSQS
# Chain of CDK19/cyclin C (Q9BWU1 whole entry, species assumed): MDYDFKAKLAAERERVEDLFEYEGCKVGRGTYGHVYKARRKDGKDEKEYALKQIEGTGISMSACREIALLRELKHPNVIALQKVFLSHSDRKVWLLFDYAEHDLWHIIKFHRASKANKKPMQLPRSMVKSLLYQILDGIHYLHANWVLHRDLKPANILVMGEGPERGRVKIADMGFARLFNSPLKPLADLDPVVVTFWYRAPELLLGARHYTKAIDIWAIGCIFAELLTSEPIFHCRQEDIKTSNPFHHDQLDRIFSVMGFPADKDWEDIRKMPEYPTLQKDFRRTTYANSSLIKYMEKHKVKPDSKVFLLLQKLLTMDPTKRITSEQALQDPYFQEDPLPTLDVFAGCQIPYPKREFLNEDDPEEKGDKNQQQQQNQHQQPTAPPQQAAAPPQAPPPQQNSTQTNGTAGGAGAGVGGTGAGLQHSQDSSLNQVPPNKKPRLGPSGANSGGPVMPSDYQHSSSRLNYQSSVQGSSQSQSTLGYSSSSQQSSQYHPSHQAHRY
# Chain of CDK19/cyclin C (P24863 whole entry partner, species assumed): as the sequence (P24863 whole entry partner, species assumed) above
# Chain of PKMYT1 (Q99640 whole entry, species assumed): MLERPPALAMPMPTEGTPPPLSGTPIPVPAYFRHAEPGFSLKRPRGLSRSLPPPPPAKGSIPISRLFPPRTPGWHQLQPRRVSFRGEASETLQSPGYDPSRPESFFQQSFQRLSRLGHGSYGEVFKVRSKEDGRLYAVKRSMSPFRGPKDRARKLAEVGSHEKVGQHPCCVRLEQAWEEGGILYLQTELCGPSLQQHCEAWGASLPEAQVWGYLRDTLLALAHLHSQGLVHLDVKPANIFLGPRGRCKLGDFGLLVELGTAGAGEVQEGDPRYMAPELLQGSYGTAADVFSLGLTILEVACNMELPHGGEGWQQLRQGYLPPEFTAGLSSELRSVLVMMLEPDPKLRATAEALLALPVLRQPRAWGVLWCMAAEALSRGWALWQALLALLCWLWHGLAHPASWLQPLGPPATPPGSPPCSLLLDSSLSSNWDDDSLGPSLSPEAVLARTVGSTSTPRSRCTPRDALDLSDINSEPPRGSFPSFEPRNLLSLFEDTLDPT
# Chain of DLK/MAP3K12 (Q12852 whole entry): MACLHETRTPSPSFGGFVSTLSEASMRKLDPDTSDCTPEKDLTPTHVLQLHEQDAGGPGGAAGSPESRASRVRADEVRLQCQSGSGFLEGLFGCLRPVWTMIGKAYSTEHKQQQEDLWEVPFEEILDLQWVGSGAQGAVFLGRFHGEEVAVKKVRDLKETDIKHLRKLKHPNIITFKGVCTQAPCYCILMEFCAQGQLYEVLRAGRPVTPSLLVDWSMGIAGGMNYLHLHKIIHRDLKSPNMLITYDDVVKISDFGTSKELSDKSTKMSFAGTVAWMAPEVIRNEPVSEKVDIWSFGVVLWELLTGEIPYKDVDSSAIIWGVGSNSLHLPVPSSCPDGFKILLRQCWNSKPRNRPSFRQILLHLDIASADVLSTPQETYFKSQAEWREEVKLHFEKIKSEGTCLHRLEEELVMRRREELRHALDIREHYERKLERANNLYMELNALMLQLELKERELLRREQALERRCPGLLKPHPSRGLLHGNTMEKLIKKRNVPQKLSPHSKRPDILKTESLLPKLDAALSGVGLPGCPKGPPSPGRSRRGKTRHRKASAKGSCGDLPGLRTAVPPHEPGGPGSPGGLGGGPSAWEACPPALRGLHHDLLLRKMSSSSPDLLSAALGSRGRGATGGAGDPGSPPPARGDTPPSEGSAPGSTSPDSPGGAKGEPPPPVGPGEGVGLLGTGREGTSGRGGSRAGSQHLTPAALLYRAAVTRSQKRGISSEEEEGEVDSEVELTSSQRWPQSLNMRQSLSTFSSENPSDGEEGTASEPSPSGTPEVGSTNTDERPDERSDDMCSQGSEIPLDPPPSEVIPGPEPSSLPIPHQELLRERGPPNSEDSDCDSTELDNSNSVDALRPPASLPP
# Chain of RIPK3 (Q9Y572 whole entry, species assumed): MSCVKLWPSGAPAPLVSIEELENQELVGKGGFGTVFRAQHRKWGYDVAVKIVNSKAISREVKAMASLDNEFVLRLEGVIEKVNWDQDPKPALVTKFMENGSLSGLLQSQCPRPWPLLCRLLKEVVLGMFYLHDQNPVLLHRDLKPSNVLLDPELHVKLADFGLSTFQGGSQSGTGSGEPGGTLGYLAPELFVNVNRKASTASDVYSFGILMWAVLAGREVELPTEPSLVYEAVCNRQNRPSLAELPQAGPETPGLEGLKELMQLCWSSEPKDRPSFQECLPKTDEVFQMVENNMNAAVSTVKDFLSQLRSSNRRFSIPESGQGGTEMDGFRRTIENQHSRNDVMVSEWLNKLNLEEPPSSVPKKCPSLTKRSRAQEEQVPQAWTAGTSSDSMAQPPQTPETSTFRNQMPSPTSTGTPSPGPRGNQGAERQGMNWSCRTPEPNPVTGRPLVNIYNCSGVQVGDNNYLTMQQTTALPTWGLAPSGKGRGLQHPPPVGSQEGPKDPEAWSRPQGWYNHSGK
Structure (SMILES),GI50 (22Rv1) [µM],GI50 (C4-2B) [µM],remaining activity at 1 µM (CDK4/CYCLIN D2) [%],remaining activity at 1 µM (CDK6/CYCLIN D2) [%],remaining activity at 1 µM (CDK19/cyclin C) [%],remaining activity at 1 µM (CDK8/cyclin C) [%],remaining activity at 1 µM (DLK/MAP3K12) [%],remaining activity at 1 µM (PKMYT1) [%],remaining activity at 1 µM (RIPK3) [%]
"Cc1cn(-c2cc(C(=O)Nc3ccc(C)c(N4Cc5cnc(NC6CC6)nc5C5(CC5)C4=O)c3)cc(C(F)(F)F)c2)cn1 [Compound 8, N-(3-(2'-(cyclopropylamino)-7'-oxo-5'H-spiro[cyclopropane-1,8'-pyrido[4,3-d]pyrimidine]-6'(7'H)-yl)-4-methylphenyl)-3-(4-methyl-1H-imidazol-1-yl)-5-(trifluoromethyl)benzamide]",< 1,< 1,> 40,> 40,,,,,
"Cc1ccc(Nc2ncc3c(n2)C2(CC2)C(=O)N(c2cc(NC(=O)c4cccc(C(F)(F)F)c4)ccc2C)C3)cn1 [Compound 51, N-(4-methyl-3-(2'-((6-methylpyridin-3-yl)amino)-7'-oxo-5'H-spiro[cyclopropane-1,8'-pyrido[4,3-d]pyrimidine]-6'(7'H)-yl)phenyl)-3-(trifluoromethyl)benzamide]",,,,,> 40,> 40,> 40,> 40,≤ 40

# Source: EP4722212A1, “NOVEL COMPOUND FOR INHIBITING PROTEIN KINASES AND PHARMACEUTICAL COMPOSITION COMPRISING SAME” (Magicbullettherapeutics Co., Ltd., priority 2023, dated 2024)
